The text below walks through data of patent US4174391A, “Spiramycin esters” (May & Baker Limited, priority 1976, dated 1979).

Data set [1] is described as follows: Mouse oral toxicity. Conditions: in vivo. The procedure: Mice were each treated orally with one of the compounds of general formula I, and they were observed during the next 3 days.
The LD50 figures obtained (doses lethal to 50% of mice treated) are shown in Table II, expressed in mg/kg animal body weight. None of the mice died during the experiment even at doses of 1000 mg/kg animal body weight.

Data set [2] concerns Staphylococcus aureus Smith. In words: Mouse treated subcutaneously, Staphylococcus aureus Smith infection (Test 2). In kind it is in vivo. As to conditions: sc, 168 h, read-out: CD50 (subcutaneous). The procedure:
(§1) The term "CD50" means the dose calculated to cure 50% of the mice treated.
Mice were infected intra-peritoneally with Staphylococcus aureus Smith [approximately 100 times the minimum dose lethal to 100% of mice infected] suspended in mucin (0.5 ml).
The results obtained from a compound of general formula I were compared with the results obtained from spiramycin I used as a standard compound.

In data set [3] the test system is Escherichia coli B (Ennis). In words: In vitro minimum inhibitory concentration, E. coli B (Ennis) (Test 3). In kind it is cell-based. As to conditions: tryptone soya broth, approximately 10^5 organisms per tube, 37° C.; for MIC: Escherichia coli. The procedure:
(§2) For each test compound, a range of concentrations in tryptone soya broth was prepared. Each test-tube containing a different concentration of the test compound within the range was inoculated with the test organism selected from Staphylococcus aureus (Oxford) or Escherichia coli B (Ennis) (approximately 10^5 organisms per tube) and after incubation at 37° C., the lowest concentration of test compound within the range required to prevent the growth of the test organism was recorded as the minimum inhibitory concentration for that compound and that organism.

Data set [4] deals with Staphylococcus aureus (Oxford). In words: In vitro minimum inhibitory concentration, S. aureus (Oxford) (Test 3). Conditions: tryptone soya broth, approximately 10^5 organisms per tube, 37° C.; for MIC: Staphylococcus aureus. In kind it is cell-based. The procedure: as §2
The subject of data set [5] is Staphylococcus aureus Smith. The experiment in a line: Mouse treated orally, Staphylococcus aureus Smith infection (Test 1). Conditions: 168 h, oral, dosed 1, 4, 24, 30 and 48 hours after infection, observed seven days, test compound, read-out: In vivo CD50 (oral). The procedure:
Mice were injected intra-peritoneally with Staphylococcus aureus Smith suspended in mucin (0.5 ml). This infection represented approximately 100 times the minimum dose calculated to kill 100% of mice. The mice were each treated orally with 16, 31, 62.5, 125 or 250 mg/kg animal body weight doses of a compound of general formula I. Each mouse was dosed 1, 4, 24, 30 and 48 hours after infection, with the selected dose.
as §1

Values after ≈ are worked out from the molar mass of the structure shown. Where a name gives a salt, the structure may show the parent alone. Some results are limits rather than exact numbers.

In general, LD50 refers to the dose expected to kill half of the subjects tested. Read a high LD50 as a less toxic substance. One may read the MIC as the least concentration at which growth counts as inhibited. High values mean a need for much substance, low ones inhibition by little substance.

For `CCOC(=O)CCC(=O)OC1C(OC2C(CC=O)CC(C)C(OC3CCC(N(C)C)C(C)O3)/C=C/C=C/CC(C)OC(=O)CC(O)C2OC)OC(C)C(OC2CC(C)(O)C(O)C(C)O2)C1N(C)C` (stereo not drawn) [A, 2'-ethyl succinate of spiramycin I], the LD50 at 72 h in data set [1] is more than 1000 mg/kg. In addition, the ED50 in data set [2] (mouse, subcutaneous, 1, 4, 24, 30 and 48 hours after infection, observed seven days) is 17.5 mg/kg; in data set [5], 88 mg/kg. Also, the MIC in data set [3] was 62 µg/mL; in data set [4] it was 1.25 µg/mL.
For `CCOC(=O)CCCC(=O)OC1C(OC2C(CC=O)CC(C)C(OC3CCC(N(C)C)C(C)O3)/C=C/C=C/CC(C)OC(=O)CC(O)C2OC)OC(C)C(OC2CC(C)(O)C(O)C(C)O2)C1N(C)C` (stereo not drawn) [B, 2'-ethyl glutarate of spiramycin I], in data set [1], the LD50 at 72 h was more than 1000 mg/kg. Moreover, the minimum inhibitory concentration (MIC) worked out at 62 µg/mL (≈ 62.9 µM) in data set [3] and 1.25 µg/mL (≈ 1.27 µM) in data set [4]. The ED50 in data set [5] is 135 mg/kg.
In the case of `COC(=O)CCC(=O)OC1C(OC2C(CC=O)CC(C)C(OC3CCC(N(C)C)C(C)O3)/C=C/C=C/CC(C)OC(=O)CC(O)C2OC)OC(C)C(OC2CC(C)(O)C(O)C(C)O2)C1N(C)C` (stereo not drawn) [C, 2'-methyl succinate of spiramycin I], the MIC in data set [3] worked out at 250 µg/mL; in data set [4], 2.5 µg/mL. Also, in data set [5], the ED50 was found to be 62 mg/kg.
Taken in the same sequence, the figures for `COC(=O)CC(C)C(=O)OC1C(OC2C(CC=O)CC(C)C(OC3CCC(N(C)C)C(C)O3)/C=C/C=C/CC(C)OC(=O)CC(O)C2OC)OC(C)C(OC2CC(C)(O)C(O)C(C)O2)C1N(C)C` (stereo not drawn) [Compound L, 2'-methyl (RS)-(3-methyl)succinate of spiramycin I] were 250 µg/mL (≈ 257 µM), 2.5 µg/mL (≈ 2.57 µM) and 58 mg/kg.
With `CCCOC(=O)CCC(=O)OC1C(OC2C(CC=O)CC(C)C(OC3CCC(N(C)C)C(C)O3)/C=C/C=C/CC(C)OC(=O)CC(O)C2OC)OC(C)C(OC2CC(C)(O)C(O)C(C)O2)C1N(C)C` (stereo not drawn) [D, 2'-propyl succinate of spiramycin I], the minimal inhibitory concentration (MIC) in data set [3] was determined as 250 µg/mL; in data set [4], 2.5 µg/mL. The ED50 in data set [5] came out at 90 mg/kg.
Taken in the same sequence, the figures for `COC(=O)CCCC(=O)OC1C(OC2C(CC=O)CC(C)C(OC3CCC(N(C)C)C(C)O3)/C=C/C=C/CC(C)OC(=O)CC(O)C2OC)OC(C)C(OC2CC(C)(O)C(O)C(C)O2)C1N(C)C` (stereo not drawn) [E, 2'-methyl glutarate of spiramycin I] were 125 µg/mL (≈ 129 µM), 2.5 µg/mL (≈ 2.57 µM) and 125 mg/kg.
On to `COC(=O)/C=C/C(=O)OC1C(OC2C(CC=O)CC(C)C(OC3CCC(N(C)C)C(C)O3)/C=C/C=C/CC(C)OC(=O)CC(O)C2OC)OC(C)C(OC2CC(C)(O)C(O)C(C)O2)C1N(C)C` (stereo not drawn) [F, 2'-methyl fumarate of spiramycin I], for which the minimal inhibitory concentration (MIC) worked out at 250 µg/mL in data set [3] and 2.5 µg/mL in data set [4]. The ED50 in data set [5] stood at 125 mg/kg.
The matching figures for `COC1C(O)CC(=O)OC(C)C/C=C/C=C/C(OC2CCC(N(C)C)C(C)O2)C(C)CC(CC=O)C1OC1OC(C)C(OC2CC(C)(O)C(O)C(C)O2)C(N(C)C)C1OC(=O)CCC(=O)SC` (stereo not drawn) [G, 2'-S-methyl thiosuccinate of spiramycin I]: 500 µg/mL (≈ 514 µM), 2.5 µg/mL (≈ 2.57 µM) and 114 mg/kg.
The matching figures for `COC1C(O)CC(=O)OC(C)C/C=C/C=C/C(OC2CCC(N(C)C)C(C)O2)C(C)CC(CC=O)C1OC1OC(C)C(OC2CC(C)(O)C(O)C(C)O2)C(N(C)C)C1OC(=O)CCC(=O)OC1CCCCC1` (stereo not drawn) [H, 2'-cyclohexyl succinate of spiramycin I]: 250 µg/mL, 2.5 µg/mL and 67 mg/kg.
Taken in the same sequence, the figures for `CCOC(=O)CC(=O)OC1C(OC2C(CC=O)CC(C)C(OC3CCC(N(C)C)C(C)O3)/C=C/C=C/CC(C)OC(=O)CC(O)C2OC)OC(C)C(OC2CC(C)(O)C(O)C(C)O2)C1N(C)C` (stereo not drawn) [J, 2'-ethyl malonate of spiramycin I] were 250 µg/mL (≈ 261 µM), 5 µg/mL (≈ 5.22 µM) and 120 mg/kg.
`COC1C(O)CC(=O)OC(C)C/C=C/C=C/C(OC2CCC(N(C)C)C(C)O2)C(C)CC(CC=O)C1OC1OC(C)C(OC2CC(C)(O)C(O)C(C)O2)C(N(C)C)C1OC(=O)CCC(=O)Oc1ccccc1` (stereo not drawn) [K, 2'-phenyl succinate of spiramycin I]: the minimal inhibitory concentration (MIC) in data set [3] worked out at 250 µg/mL; in data set [4], 2.5 µg/mL. In data set [5], the ED50 turned out to be 76 mg/kg.
Taken in the same sequence, the figures for `COC1C(O)CC(=O)OC(C)C/C=C/C=C/C(OC2CCC(N(C)C)C(C)O2)C(C)CC(CC=O)C1OC1OC(C)C(OC2CC(C)(O)C(O)C(C)O2)C(N(C)C)C1OC(=O)CCC(=O)OCCc1ccccc1` (stereo not drawn) [M, 2'-(2-phenylethyl) succinate of spiramycin I] were 250 µg/mL, 2.5 µg/mL and 64 mg/kg.
Take `COC1C(O)CC(=O)OC(C)C/C=C/C=C/C(OC2CCC(N(C)C)C(C)O2)C(C)CC(CC=O)C1OC1OC(C)C(OC2CC(C)(O)C(O)C(C)O2)C(N(C)C)C1OC(=O)CCC(=O)OC(C)(C)C` (stereo not drawn) [N, 2'-tertiary-butyl succinate of spiramycin I]: the figures for the MIC in data set [3] and in data set [4] were 125 µg/mL and 2.5 µg/mL, respectively. Besides, in data set [5], the ED50 turned out to be 130 mg/kg.
Taken in the same sequence, the figures for `COC1C(O)CC(=O)OC(C)C/C=C/C=C/C(OC2CCC(N(C)C)C(C)O2)C(C)CC(CC=O)C1OC1OC(C)C(OC2CC(C)(O)C(O)C(C)O2)C(N(C)C)C1OC(=O)CCC(=O)OC(C)C` (stereo not drawn) [O, 2'-isopropyl succinate of spiramycin I] were 125 µg/mL, 1.25 µg/mL and 96 mg/kg.
Turning to `COC1C(O)CC(=O)OC(C)C/C=C/C=C/C(OC2CCC(N(C)C)C(C)O2)C(C)CC(CC=O)C1OC1OC(C)C(OC2CC(C)(O)C(O)C(C)O2)C(N(C)C)C1O` (stereo not drawn) [Spiramycin I, spiramycin I, reference compound], the ED50 in data set [2] stood at 5.8 mg/kg.
On to Spiramycin [reference compound], for which the “In vitro minimum inhibitory concentration, Escherichia coli B (Ennis)” value in data set [3] lay within 62 to 250 µg/mL. In addition, in data set [4], the “In vitro minimum inhibitory concentration, S. aureus (Oxford)” value lay within 0.62 to 2.5 µg/mL.
